Data published in patent US10011863B2, “Methods for detecting enhanced NMDA receptor function and uses thereof” (INOVA HEALTH SYSTEM, priority 2016, dated 2018).

Assays:
[1] = test system: human GRIN2B promoter (G allele of SNP rs3764030) in N2a cells; test: dual-luciferase reporter gene assay, GRIN2B promoter G allele plasmid; format: cell-based, murine; conditions: N2A cells transfected with G allele luciferase reporter plasmid; increasing concentrations of NMDA
Procedure: (§1) FIG. 3 depicts a concentration dependent response of human GRIN2B promoter in N2a cells carrying either the A or G alleles of SNP rs3764030 to NMDA. Luciferase reporter gene plasmids were constructed in pGL 4.10 (to produce Firefly luciferase, Promega, US). Luciferase reporter plasmids and the pGL4.75 plasmid (to produce Renilla luciferase as a reference) were co-transfected into retinoic acid differentiated N2a cells and assayed for (Methods). After 24 hours of transfection, the cells were incubated for six hours with 0, 30, 50, 70 or 90 μM NMDA for transcription factors binding and then replaced with complete media (with 10% FBS) and cultured for an additional 40-44 hrs. Data are presented as means±SE.
(§2) Molecular and cellular characterization of a functional GRIN2B SNP: Luciferase vector construction. […]
(§3) Cell Culture, Transfection, and Luciferase assay. […] The luciferase activities were then measured in Synergy 4 plate reader (Biotek, US).
(§4) Murine Neuro-2a neuroblastoma cells were maintained in RPMI medium 1640 with 10% Fetal Bovine Serum (complete medium) at 37° C. in 5% CO2. […] The luciferase activities were then measured in Synergy 4 plate reader (Biotek US).

[2] = test system: human GRIN2B promoter (A allele of SNP rs3764030) in N2a cells; test: dual-luciferase reporter gene assay, GRIN2B promoter A allele plasmid; format: cell-based, murine
Procedure: as §1, §2, §3, §4

[3] = biological target: T1, recombinant human Elk-1 protein (Homo sapiens, UniProt P19419); test: Electrophoretic Mobility Shift Assay (EMSA); format: binding; conditions: 1 μg recombinant human Elk-1; gel stained for DNA (SYBR Green) and protein (SYPRO Ruby)
T1 construct: purchased Sigma Aldrich
T1 sequence (P19419 1-428): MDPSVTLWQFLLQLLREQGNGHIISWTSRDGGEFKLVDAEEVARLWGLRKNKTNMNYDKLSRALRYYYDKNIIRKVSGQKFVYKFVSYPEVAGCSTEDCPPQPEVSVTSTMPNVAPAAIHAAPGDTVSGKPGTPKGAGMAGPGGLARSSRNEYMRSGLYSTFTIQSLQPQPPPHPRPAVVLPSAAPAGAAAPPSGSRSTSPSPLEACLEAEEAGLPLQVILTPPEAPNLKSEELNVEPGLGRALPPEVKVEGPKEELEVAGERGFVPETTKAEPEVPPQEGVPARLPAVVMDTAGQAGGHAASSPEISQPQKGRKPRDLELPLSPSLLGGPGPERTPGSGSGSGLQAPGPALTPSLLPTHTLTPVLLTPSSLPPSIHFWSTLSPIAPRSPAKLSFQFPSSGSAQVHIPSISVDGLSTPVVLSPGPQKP
Procedure: FIG. 2 depicts binding of recombinant Elk-1 protein (an ETS transcription factor) to double stranded DNAs containing the single nucleotide polymorphism (SNP) rs3764030 variant A allele from the human GRIN2B gene promoter. Double-stranded DNA targets (Methods) were sequentially incubated with 1 μg recombinant human Elk-1 protein in EMSA buffer, then incubated with the Elk-1 antibody 20 minutes. […] Samples were electrophoresed through 6% polyacrylamide gels in HEPES buffer pH 6.3, without polydldC. The gel was then stained with the SYBR Green to visualize DNA and SYPRO Ruby for protein bound to DNA. The stained gel was scanned using G:BOX (Syngene, US) for imaging. Elk-1 bound to DNA is indicated by the arrow.
Electrophoretic Mobility Shift Assay (EMSA). To monitor the interaction between the ETS domain transcription factor, Elk-1, and its DNA recognition sequence in vitro, we used EMSA. The DNA sequences for positive control containing a GGAT consensus core binding sequence were: Forward: 5′ […] 3′ (SEQ ID NO:2) and Reverse: 5′ […] 3′ (SEQ ID NO:3). The negative control region was: Forward: 5′ […] 3′ (SEQ ID NO:4) and Reverse: 5′ […] 3′ (SEQ ID NO:5), as described in Wei et al (2010). The forward and reverse sequence for GRIN2B A allele which created the ETS binding site were: 5′ […] 3′ (SEQ ID NO:6)and 5′ […] 3′ (SEQ ID NO:7), repectively. […]

Row | Molecule | luciferase reporter response to NMDA treatment [1] | dose-dependent increase in luciferase activity ([2]; N2A cells transfected with A allele reporter, increasing concentrations of NMDA (0, 30, 50, 70, 90 μM)) | reporter gene activity of A allele relative to cells carrying the G allele reporter ([2]; NMDA receptor activation, dose-dependent, A allele vs G allele) [fold] | binding of recombinant Elk-1 to DNA probe [3]
1 | CN[C@H](CC(=O)O)C(=O)O [NMDA, N-methyl-D-aspartate] | did not respond | 2.4-11.5 fold | 2 | –
2 | A allele DNA probe: annealed dsDNA of GRIN2B A allele, 5′ CATCTCCGGGGAACACGCGAA 3′ (SEQ ID NO:6) and SEQ ID NO:7, creating ETS binding site (chain 2 TTCGCGTGTTCCCCGGAGATG; listed as DNA, chemistry not given here) | – | – | – | bound recombinant Elk-1 to a greater extent than the G allele DNA probe
